Measurements as given in ChEMBL document CHEMBL4184302 (Bioorg Med Chem Lett, 2018).
Calls of active or inactive are those of the source. No cut-off for these calls is given here.

Columns and labels:
[1] = Inhibition of bacterial N-terminal His6-tagged TEM1 expressed in Escherichia coli BL21 DE3 pLysS cells using FC-5 as substrate pretreated for 10 mins followed by substrate addition measured every 60 secs by fluorescence assay; design: species or system Bacteria
[2] = Inhibition of bacterial N-terminal His6-tagged VIM2 (27 to 266 residues) expressed in Escherichia coli BL21 DE3 pLysS cells using FC-5 as substrate pretreated for 10 mins followed by substrate addition measured every 60 secs by fluorescence assay; design: species or system Bacteria
[3] = Inhibition of bacterial N-terminal His6-tagged NDM1 expressed in Escherichia coli BL21 DE3 pLysS cells using FC-5 as substrate pretreated for 10 mins followed by substrate addition measured every 60 secs by fluorescence assay; design: species or system Bacteria
[4] = Inhibition of bacterial N-terminal His6-tagged VIM2 (27 to 266 residues) expressed in Escherichia coli BL21 DE3 pLysS cells using FC-5 as substrate pretreated for 10 mins followed by substrate addition by fluorescence assay; design: species or system Bacteria
Bacteria [5] = assay: Reversible inhibition of bacterial N-terminal His6-tagged VIM2 (27 to 266 residues) expressed in Escherichia coli BL21 DE3 pLysS cells at 11 uM using FC-5 as substrate pretreated for 30 mins followed by substrate addition by jump-dilution method
Escherichia coli [6] = assay: Potentiation of meropenem-induced antimicrobial activity against Escherichia coli BL21(DE3) harboring VIM-2 assessed as meropenem MIC at 100 uM measured after 16 to 20 hrs by microdilution broth method (reference value: 16 mg/L); type: functional
Escherichia coli [7] = assay: Potentiation of meropenem-induced antimicrobial activity against Escherichia coli BL21(DE3) assessed as meropenem MIC at 25 uM measured after 16 to 20 hrs by microdilution broth method (reference value: <0.125 mg/L); type: functional
Escherichia coli [8] = assay: Potentiation of meropenem-induced antimicrobial activity against Escherichia coli BL21(DE3) assessed as meropenem MIC at 10 uM measured after 16 to 20 hrs by microdilution broth method (reference value: <0.125 mg/L); type: functional
Escherichia coli [9] = assay: Potentiation of meropenem-induced antimicrobial activity against Escherichia coli BL21(DE3) harboring VIM-2 assessed as meropenem MIC at 10 uM measured after 16 to 20 hrs by microdilution broth method (reference value: 16 mg/L); type: functional
Escherichia coli [10] = assay: Potentiation of meropenem-induced antimicrobial activity against Escherichia coli BL21(DE3) assessed as meropenem MIC at 100 uM measured after 16 to 20 hrs by microdilution broth method (reference value: <0.125 mg/L); type: functional
Bacteria [11] = assay: Reversible inhibition of bacterial N-terminal His6-tagged VIM2 (27 to 266 residues) expressed in Escherichia coli BL21 DE3 pLysS cells at 415 uM using FC-5 as substrate pretreated for 30 mins followed by substrate addition by jump-dilution method
Escherichia coli [12] = assay: Potentiation of meropenem-induced antimicrobial activity against Escherichia coli BL21(DE3) assessed as meropenem MIC at 50 uM measured after 16 to 20 hrs by microdilution broth method (reference value: <0.125 mg/L); type: functional
Bacteria [13] = assay: Competitive inhibition of bacterial N-terminal His6-tagged VIM2 (27 to 266 residues) expressed in Escherichia coli BL21 DE3 pLysS cells using varying levels of FC-5 as substrate by fluorescence assay
Escherichia coli [14] = assay: Potentiation of meropenem-induced antimicrobial activity against Escherichia coli BL21(DE3) harboring VIM-2 assessed as meropenem MIC at 50 uM measured after 16 to 20 hrs by microdilution broth method (reference value: 16 mg/L); type: functional
[15] = Binding affinity to bacterial N-terminal His6-tagged VIM2 (27 to 266 residues) expressed in Escherichia coli BL21 DE3 pLysS cells by isothermal calorimetric method; design: species or system Bacteria
Escherichia coli [16] = assay: Potentiation of meropenem-induced antimicrobial activity against Escherichia coli BL21(DE3) harboring VIM-2 assessed as meropenem MIC at 25 uM measured after 16 to 20 hrs by microdilution broth method (reference value: 16 mg/L); type: functional

Compound | IC50 [1] [µM] | pIC50 [1] | IC50 [2] [µM] | pIC50 [2] | IC50 [3] [µM] | pIC50 [3] | IC50 [4] [nM] | inhibition (Bacteria [5]) | MIC (Escherichia coli [6]) [µg/mL] | MIC (Escherichia coli [7]) [µg/mL] | MIC (Escherichia coli [8]) [µg/mL] | MIC (Escherichia coli [9]) [µg/mL] | MIC (Escherichia coli [10]) [µg/mL] | inhibition (Bacteria [11]) | MIC (Escherichia coli [12]) [µg/mL] | inhibition (Bacteria [13]) | MIC (Escherichia coli [14]) [µg/mL] | Kd [15] [µM] | MIC (Escherichia coli [16]) [µg/mL]
O=C(O)[C@H](O)Cc1ccc(O)c(O)c1 | 189 | 3.72 | > 600 | < 3.2 | > 600 | < 3.2 |  |  |  |  |  |  |  |  |  |  |  |  | 
O=C(O)/C=C/c1ccc(O)c(O)c1 [CAFFEIC ACID] | > 600 | < 3.2 | > 600 | < 3.2 | > 600 | < 3.2 |  |  |  |  |  |  |  |  |  |  |  |  | 
C[C@H](CS)C(=O)N1CCC[C@H]1C(=O)O [CAPTOPRIL] |  |  |  |  |  |  | 2470 | Active |  |  |  |  |  |  |  |  |  |  | 
O=C(/C=C/c1ccc(O)c(O)c1)O[C@H](Cc1ccc(O)c(O)c1)C(=O)O [ROSMARINIC ACID] | > 600 | < 3.2 | 41.5 | 4.38 | > 600 | < 3.2 |  |  | 8 | < 0.125 | < 0.125 | 16 | < 0.125 | Active | < 0.125 | Dose-dependent effect | 8 | 10.2 | 16
O=C(/C=C/c1ccc(O)c(O)c1/C=C/c1ccc(O)c(O)c1)O[C@H](Cc1ccc(O)c(O)c1)C(=O)O [SALVIANOLIC ACID A] | 34.3 | 4.46 | 27.2 | 4.57 | 160 | 3.75 to 3.79 |  |  | 4 | < 0.125 | < 0.125 | 16 | < 0.125 |  | < 0.125 |  | 4 |  | 16
